Assay results: patent US20160120889A1, “LIFESPAN EXTENDING AGENT” (priority 2011, published 2016)

Assays:
[1] = test system: wild-type N2 strain of the nematode Caenorhabditis elegans; experiment: Nematode survival rate and average lifespan, wild-type N2; format: in vivo
Experimental: The wild-type N2 strain of the nematode Caenorhabditis elegans was used.
(§1) Complete S liquid medium (Sulston, J. E. and Brenner, S. (1974) Genetics 77, 95-104) was used for the culturing of the nematode. D-psicose or D-allose was added to the medium in 0.25% (14 mM) and 0.5% (28 mM). The Escherichia coli (E. coli) OP50 strain was added in 30 mg (wet weight/mL) to feed the worms. To exclude the effects of the germ cells on lifespan, the cell division inhibitor 2′-deoxy-5-fluorouridine (40 μM) was added.
(§2) Young worms, 4 days of age, were used for the measurements of survival rate and average lifespan. The prepared liquid medium was dispensed onto ten plastic petri dishes having a diameter of 3.5 cm (2 mL each). Ten nematodes were transferred to each petri dish (a total of 100 individuals), and cultured at 20° C. The samples were inoculated into a new medium every day until day 3, and every 2 to 3 days thereafter. Observations were made at the time of the inoculation, and the number of survived individuals was recorded.
(§3) The wild-type N2 strain of the nematode Caenorhabditis elegans was cultured, and lifespan was measured in the same manner as in Example 1, except that the D-psicose was used in 0.5% (w/v). […] The average lifespan with 0.5% D-psicose was 27 days, longer than the 23-day lifespan of the D-psicose-free control.

[2] = test system: oxygen sensitive mutant mev-1 of the nematode Caenorhabditis elegans; experiment: Nematode average lifespan, oxygen sensitive mutant mev-1; format: in vivo; conditions: mev-1, 0.25%, Example 3; control 12 days
Experimental: as §1, §2
as §3, with “oxygen sensitive mutant mev-1” for “wild-type N2 strain”, “0.25%.” for “0.5% (w/v).”, “0.25%” for “0.5%”, “16” for “27”, “12-day” for “23-day”

catalase activity in N2 = experiment: Catalase activity in lysate of N2; format: in vivo, Caenorhabditis elegans; conditions: N2, 0.5% (w/v), day 7, FIG. 8
Experimental: (§4) The wild-type N2 and the oxygen sensitive mutant mev-1 of the nematode Caenorhabditis elegans were cultured in liquid medium (10 mL) containing 0.5% (w/v) D-psicose. The medium was dispensed onto plastic petri dishes having a diameter of 10 cm, and approximately 1,000 nematodes were placed in each petri dish. The nematodes were cultured in the same manner as in Example 1 except for these differences, and the samples were collected on day 6 from the start of the culturing. FIG. 5 represents the results of the comparison of SOD mRNA gene expression levels. For comparison, the RNA gene levels of mitochondria Mn-SOD and cytosol Cu/Zn-SOD were measured.
The wild-type N2 of the nematode Caenorhabditis elegans was grown in the same manner as in Example 4. The samples were collected on day 7 from the start of the culturing, and the catalase activity in the lysate was measured.

[3] = test system: SOD gene (Mn-SOD sod-3, Cu/Zn-SOD) in mev-1; experiment: SOD mRNA gene expression in mev-1 (real time quantitative RT-PCR); format: in vivo, Caenorhabditis elegans
Experimental: as §4

[4] = test system: SOD gene (mitochondria Mn-SOD, cytosol Cu/Zn-SOD) in N2; experiment: SOD mRNA gene expression in N2 (real time quantitative RT-PCR); format: in vivo, Caenorhabditis elegans; conditions: N2, 0.5% (w/v), day 6, FIG. 5
Experimental: as §4

SOD activity in mev-1 = experiment: SOD activity in lysate of mev-1; format: in vivo, Caenorhabditis elegans; conditions: mev-1, 0.5% (w/v)
Experimental: as §4
(§5) The wild-type N2 and the oxygen sensitive mutant mev-1 of the nematode Caenorhabditis elegans were grown in the same manner as in Example 4. The samples were collected on day 7 from the start of the culturing, and the SOD activity in the lysate was measured.

[5] = test system: catalase genes ctl-1, ctl-2 in N2; experiment: Catalase mRNA gene expression in N2; format: in vivo, Caenorhabditis elegans; conditions: N2, 0.5% (w/v), day 6
Experimental: as §4
The wild-type N2 and the oxygen sensitive mutant mev-1 of the nematode Caenorhabditis elegans were cultured in the same manner as in Example 4. The samples were collected on day 6 from the start of the culturing, and the catalase mRNA gene expression levels were compared. For comparison, the RNA gene levels of cytosol ctl-1 and peroxisome CTL-2 were measured.

SOD activity in N2 = experiment: SOD activity in lysate of N2; format: in vivo, Caenorhabditis elegans; conditions: N2, 0.5% (w/v)
Experimental: as §4, §5

| Compound | average lifespan ([1]; N2, 0.5% (28 mM) in medium, 20° C., Example 1, control 12.5 days) | increase in average lifespan vs control ([1]; N2, 0.5% in medium, Example 1) | average lifespan [2] | catalase activity in the lysate (catalase activity in N2) | SOD mRNA gene expression level ([3]; mev-1, 0.5% (w/v), day 6, FIG. 5) | increase in expression level of Mn-SOD (sod-3) gene ([3]; mev-1, real time quantitative RT-PCR, 0.5% (w/v), day 6) | SOD mRNA gene expression level [4] | increase in SOD enzyme activity (SOD activity in mev-1; day 7) | SOD activity in the lysate (SOD activity in mev-1; day 7, FIG. 6) | increase in gene expression levels of cytoplasm-localized catalase and peroxisome catalases (ctl-1, ctl-2) [5] | average lifespan ([1]; N2, 0.25% (14 mM) in medium, 20° C., Example 1, control 15.8 days) | increase in average lifespan vs control ([1]; N2, 0.25% in medium, Example 1) | lifespan extension ([1]; N2, 0.5% (w/v)) | average lifespan ([1]; N2, 0.5% (w/v), Example 2, control 23 days) | increase in SOD enzyme activity (SOD activity in N2; day 7) | SOD activity in the lysate (SOD activity in N2; day 7, FIG. 6) |
| --- | --- | --- | --- | --- | --- | --- | --- | --- | --- | --- | --- | --- | --- | --- | --- | --- |
| O=C[C@H](O)[C@H](O)[C@H](O)[C@H](O)CO [D-allose] | 15.8 days | 26% | – | – | – | – | – | – | – | – | – | – | – | – | – | – |
| O=C(CO)[C@H](O)[C@H](O)[C@H](O)CO [D-psicose] | – | – | 16 days | increased catalase activity | increased expression | 1.7 fold | increased expression | 1.3 fold | increased SOD activity | 1.5 fold | 18.9 days | 20% | 17% | 27 days | 1.5 fold | increased SOD activity |
